According to PubChem BioAssay AID2060906 (Molecular Pharmacology Branch, DTP, NCI, 2025):

Test system: 485176-168-R4-J1-PDC complex spheroid growth
Experiment: Anticancer human tumor 485176-168-R4-J1-PDC patient-derived pancreatic adenocarcinoma cell line growth inhibition [RAS]
Conditions: for viability, T/C: stronger effect = lower value
Text: RAS pathway inhibitors in Combinations in Complex Spheroids
A high-throughput screen of multi-cell type tumor spheroids was designed to identify active combinations of RAS pathway inhibitors and targeted small molecules. Complex spheroids include a stromal component modeled by human endothelial cells (HUVEC) and fibroblasts modeled by human mesenchymal stem cells (MSCs). The concentration ranges selected for each drug and investigational agent were based upon clinically achievable concentrations if the clinical Cmax of the agent was known.
Compounds. The drugs and investigational agents: abemaciclib (NSC768073), cobimetinib (NSC768068), divarasib (GDC6063, NSC841802), docetaxel (NSC628503), GDC-1971 (RLY-1971, NSC841576), gemcitabine (NSC613327), inavolisib (NSC800729), ipatasertib (NSC767898), KB-0742 (NSC834161), MRTX-1133 (NSC836407), osimertinib (NSC779217), RMC-4630 (NSC839698), RMC-6236 (NSC851965), RMC-6291 (NSC852671), Ro-3306 (NSC812927), sapanisertib (NSC764658), SN-38 (NSC673596), staurosporine (NSC755774), SY5609 (NSC837396), and tovorafenib (DAY101, NSC766906), were obtained from the National Cancer Institute (NCI) Developmental Therapeutics Program Chemical Repository. The FDA-approved anticancer drug set is available from the NCI Developmental Therapeutics Program. […] The stock solutions were prepared in dimethyl sulfoxide (DMSO, Sigma-Aldrich, St. Louis, MO, cat. D2650) at 800-fold the tested concentration and stored at -70 degrees C prior to their use. All drugs and investigational agents were tested over a range starting from a high concentration at or near the clinical Cmax and decreasing in half-log increments. If the clinical Cmax for an agent had not been determined, the highest concentration tested was 10 microM.
Cell Culture. All cells were maintained in an incubator at 37 degrees C and 5% CO2 with 95% humidity. The PDC lines were cultured according to standard operating procedures established by the NCI PDMR. All PDCs were thawed and cultured in Matrigel-coated flasks prepared with a working solution of 1X Ham's F-12 nutrient mix, without supplementation (Invitrogen, Waltham, MA, cat. 11765054), 100 U/mL penicillin-streptomycin (Invitrogen, cat. 15140122), and 2.5% Matrigel (Corning Inc., Corning, NY, cat. 354248) for the first three passages. The 362531-283-R-J2-PDC and 782815-120-R-J1-PDC lines were cultured in 6C/Colon 1B media, which includes advanced DMEM/F-12 (Thermo Fisher Scientific, cat. 12634028), 10 mM HEPES (Thermo Fisher Scientific, cat. 15630080), 1X GlutaMAX supplement (Thermo Fisher Scientific, cat. 35050061), 0.1 mg/mL primocin (InvivoGen, San Diego, CA, cat. ant-pm-2), 10% defined fetal bovine serum, heat inactivated (HyClone Laboratories Inc., Logan, UT, cat. SH30070.03HI), 50% L-WRN conditioned media (ATCC, cat. CRL-3276), 1.25 mM N-Acetyl-L-cysteine (Sigma-Aldrich, cat. A9165), 10 mM nicotinamide (Sigma-Aldrich, cat. N0636), 1X B-27 supplement (Thermo Fisher Scientific, cat. 17504044), 1X N-2 supplement (Thermo Fisher Scientific, cat. 17502048), 50 ng/mL human EGF (Thermo Fisher Scientific, cat. PHG0311), and 10 microM Y-27632 dihydrochloride (Tocris Bioscience, cat. 1254). The K12877-001-R-J1-PDC line was cultured in 6I media, which includes all 6C/Colon 1B media plus 10 ng/mL human FGF-10 (PeproTech, cat. 100-26), 1 ng/mL human FGF-2 (PeproTech, cat. 100-18B), 1 µM prostaglandin E2 (Tocris Bioscience, cat. 2296), […] hydrocortisone (Sigma-Aldrich, cat. H4001), and […] bovine insulin (Sigma-Aldrich, cat. I6634). The K86415-001-R-J1-PDC line was cultured in 6D media, which includes all 6C/Colon 1B media components minus the L-WRN conditioned media. The 485176-168-R4-J1-PDC was cultured in PANC media, which includes all 6C/Colon 1B media plus 100 ng/mL human FGF-10 (PeproTech, cat. 100-26), 500 nM SB-431542 (Selleckchem, cat. S1067), and 10 nM gastrin (Tocris Bioscience, cat. 3006). […]
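Also: spheroids exposed to compounds for seven days before readout.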
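For viability, T/C in this document: luminescence viability expressed relative to DMSO vehicle wells set as 100%.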

CC(Nc1ccc2c(c1)OCCn1cc(N3C(=O)OCC3C(F)F)nc1-2)C(N)=O (stereo unspecified)
viability, T/C (compound 0.0316 µM): 97.9% [middle of 4 runs] | viability, T/C (compound 0.1 µM): 89.2% [middle of 4 runs] | viability, T/C (compound 0.316 µM): 84.7% [middle of 4 runs] | viability, T/C (compound 1 µM): 75.3% [middle of 4 runs] | viability, T/C (compound 3.16 µM): 69.1% [middle of 4 runs] | viability, T/C (compound 10 µM): 55.5% [middle of 4 runs] | IC50 (curve of compound): > 10000 nM

CCC(CC)c1cc(NC2CCC(N)C2)n2nccc2n1 (stereo unspecified)
viability, T/C (compound 0.0316 µM): 105% [middle of 4 runs] | viability, T/C (compound 0.1 µM): 93.7% [middle of 4 runs] | viability, T/C (compound 0.316 µM): 98.9% [middle of 4 runs] | viability, T/C (compound 1 µM): 80.6% [middle of 4 runs] | viability, T/C (compound 3.16 µM): 3.56% [middle of 4 runs] | viability, T/C (compound 10 µM): 0.72% [middle of 4 runs] | IC50 (curve of compound): 1.58 µM [middle of 4 runs]

CC(C)n1nc(-c2ccc3oc(N)nc3c2)c2c(N)ncnc21 + C=CC(=O)N1CCN(c2nc(OCC3CCCN3C)nc3c(F)c(-c4nc(N)cc(C)c4C(F)(F)F)c(Cl)cc23)C(C)C1
IC50 (curve of first compound, second compound 0.00316 µM): 20.1 nM | IC50 (curve of first compound, second compound 0.01 µM): 27.2 nM | IC50 (curve of first compound, second compound 0.0316 µM): 16.6 nM | IC50 (curve of first compound, second compound 0.1 µM): 35.5 nM | IC50 (curve of first compound, second compound 0.316 µM): 21.5 nM | IC50 (curve of first compound, second compound 1 µM): 23.6 nM | viability, T/C (second compound 0.00316 µM, first compound 0.000316 µM): 97.2% | viability, T/C (second compound 0.00316 µM, first compound 0.001 µM): 92.6% | viability, T/C (second compound 0.00316 µM, first compound 0.00316 µM): 84.2% | viability, T/C (second compound 0.00316 µM, first compound 0.01 µM): 66.1% | viability, T/C (second compound 0.00316 µM, first compound 0.0316 µM): 39.3% | viability, T/C (second compound 0.00316 µM, first compound 0.1 µM): 27% | viability, T/C (second compound 0.01 µM, first compound 0.000316 µM): 81.8% | viability, T/C (second compound 0.01 µM, first compound 0.001 µM): 88.8% | viability, T/C (second compound 0.01 µM, first compound 0.00316 µM): 91.8% | viability, T/C (second compound 0.01 µM, first compound 0.01 µM): 67.5% | viability, T/C (second compound 0.01 µM, first compound 0.0316 µM): 48.6% | viability, T/C (second compound 0.01 µM, first compound 0.1 µM): 18.8% | viability, T/C (second compound 0.0316 µM, first compound 0.000316 µM): 89.9% | viability, T/C (second compound 0.0316 µM, first compound 0.001 µM): 90% | viability, T/C (second compound 0.0316 µM, first compound 0.00316 µM): 81.2% | viability, T/C (second compound 0.0316 µM, first compound 0.01 µM): 54.7% | viability, T/C (second compound 0.0316 µM, first compound 0.0316 µM): 42.3% | viability, T/C (second compound 0.0316 µM, first compound 0.1 µM): 23.8% | viability, T/C (second compound 0.1 µM, first compound 0.000316 µM): 109% | viability, T/C (second compound 0.1 µM, first compound 0.001 µM): 89.5% | viability, T/C (second compound 0.1 µM, first compound 0.00316 µM): 84.7% | viability, T/C (second compound 0.1 µM, first compound 0.01 µM): 74.5% | viability, T/C (second compound 0.1 µM, first compound 0.0316 µM): 56% | viability, T/C (second compound 0.1 µM, first compound 0.1 µM): 23.3% | viability, T/C (second compound 0.316 µM, first compound 0.000316 µM): 92% | viability, T/C (second compound 0.316 µM, first compound 0.001 µM): 78.3% | viability, T/C (second compound 0.316 µM, first compound 0.00316 µM): 85.7% | viability, T/C (second compound 0.316 µM, first compound 0.01 µM): 62.6% | viability, T/C (second compound 0.316 µM, first compound 0.0316 µM): 43.6% | viability, T/C (second compound 0.316 µM, first compound 0.1 µM): 30.1% | viability, T/C (second compound 1 µM, first compound 0.000316 µM): 81.1% | viability, T/C (second compound 1 µM, first compound 0.001 µM): 92.6% | viability, T/C (second compound 1 µM, first compound 0.00316 µM): 82% | viability, T/C (second compound 1 µM, first compound 0.01 µM): 72% | viability, T/C (second compound 1 µM, first compound 0.0316 µM): 42.5% | viability, T/C (second compound 1 µM, first compound 0.1 µM): 22.2%
